Measurements from patent publication US12195427B2, “MASP-2 inhibitors and methods of use” (priority 2018, dated 2025).

Key:
Lectin Pathway = Lectin Pathway Activation Assay in Human Serum (mannan-coated ELISA, C3c detection); format: biochemical; conditions: 1% human serum
Description: Microtiter ELISA plate was coated with mannan from Saccharomyces cerevisiae (Sigma-Aldrich, M7504) for overnight at 4° C. in coating buffer [15 mM Na2CO3, 35 mM NaHCO3].

MASP-2 CCP2-SP = MASP-2 CCP2-SP (Homo sapiens (Human), UniProt O00187); assay: MASP-2 co-crystallization, X-ray crystallography and structure analysis (H-bonds, van der Waals contacts); set-up: van der Waals contact distance, MASP-2 HIS 483 atom CD2 / van der Waals contact distance, MASP-2 HIS 483 atom NE2 / van der Waals contact distance, SER 654 C to compound atom / van der Waals contact distance, SER 654 O to compound atom / van der Waals contact distance, TRP 655 C to compound atom / van der Waals contact distance, MASP-2 GLY 528 atom CA / van der Waals contact distance TRP 655 atom CZ3 / van der Waals contact distance TRP 655 atom N / van der Waals contact distance TRP 655 atom CE3 / van der Waals contact distance GLY 656 atom C / van der Waals contact distance GLY 656 atom CA / van der Waals contact distance GLY 656 atom O / van der Waals contact distance, MASP-2 TYR 607 atom CD1 / van der Waals contact distance, MASP-2 PRO 606 atom O / d(C3,CA1) / d(CA1,N1)2 / d(H4,O1) / d(H4,O2) / d(O1,O2) / d(CA1,O2) / d(CA6,O1) / d(CA6,O2) / d(CA1,C5) / d(O2,H3) / d(N2,C2) / d(CA5,N2) / d(N2,C4) / d(N2,C6) / d(N2,CA3) / d(N2,O3) / d(O4,H2): unit not given beside the values; conditions: for van der Waals contact distance, MASP-2 amino acid atom to compound atom: ARG 630;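 as to Ligand-pharmacophore element distance, pharmacophore element C2: distance from averaged pharmacophore element to bound ligand; missing value means element absent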;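 as to Ligand-pharmacophore element distance, pharmacophore element C3: distance from averaged pharmacophore element to bound ligand; missing value means element absent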;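 as to Ligand-pharmacophore element distance, pharmacophore element C4: distance from averaged pharmacophore element to bound ligand; missing value means element absent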;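 as to Ligand-pharmacophore element distance, pharmacophore element C5: distance from averaged pharmacophore element to bound ligand; missing value means element absent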
Method in brief: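 E. coli-expressed CCP2-SP (±6His); apo crystals soaked 1–2× in inhibitor-containing crystallization solution; optional 20% glycerol cryoprotection, LN2 flash-cool; synchrotron data at 1.0 wavelength; MR using 1Q3X portions, partial refinement; single pose analysed when several seen.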

[1] = Table A5-1 pharmacophore: distance between elements, S2/S1 region
[2] = Table A5-2 pharmacophore distance, S3/S4 region
[3] = Table A7-1, between pharmacophore elements of the bound compound

MASP-2 CCP2-SP, sequence (O00187 445-686): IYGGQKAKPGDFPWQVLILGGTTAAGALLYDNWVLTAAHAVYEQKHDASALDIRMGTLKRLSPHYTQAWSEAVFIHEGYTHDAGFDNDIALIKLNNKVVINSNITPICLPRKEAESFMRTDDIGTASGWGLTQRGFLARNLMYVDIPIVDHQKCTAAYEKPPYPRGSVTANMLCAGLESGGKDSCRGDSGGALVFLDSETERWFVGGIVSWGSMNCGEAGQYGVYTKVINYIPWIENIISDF
MASP-2 CCP2-SP, sequence (O00187 364-432 partner): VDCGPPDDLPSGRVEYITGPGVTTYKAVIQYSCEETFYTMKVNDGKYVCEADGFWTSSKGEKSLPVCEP

C[C@H](NC(=O)[C@H]1C[C@H](Cc2ccccc2)CN1)C(=O)NCc1cnc2[nH]cc(Cl)c2c1 [compound 1334, (2R,4S)-4-Benzyl-N—((S)-1-(((3-chloro-1H-pyrrolo[2,3-b]pyridin-5-yl)methyl)amino)-1-oxopropan-2-yl)pyrrolidine-2-carboxamide]
IC50 (Lectin Pathway): 50 to 500 nM | H-bond distance to MASP-2 GLY 656 atom N (MASP-2 CCP2-SP; Table A1 (H-Bonds), GLY 656 N): 3.16 | H-bond distance to MASP-2 GLY 656 atom O (MASP-2 CCP2-SP; Table A1 (H-Bonds), GLY 656 O): 2.83 | H-bond distance to MASP-2 SER 654 atom O (MASP-2 CCP2-SP; Table A1 (H-Bonds), SER 654 O): 2.81 | van der Waals contact distance, MASP-2 HIS 483 atom CD2 (MASP-2 CCP2-SP; Table A2-1): 3.66 | van der Waals contact distance, MASP-2 HIS 483 atom CE1 (MASP-2 CCP2-SP; Table A2-1): 3.84 | van der Waals contact distance, MASP-2 PHE 529 atom CD2 (MASP-2 CCP2-SP; Table A2-3): 3.73 | van der Waals contact distance, MASP-2 TYR 607 atom CD1 (MASP-2 CCP2-SP; Table A2-4): 3.81 | van der Waals contact distance, MASP-2 amino acid atom to compound atom (MASP-2 CCP2-SP; Table A2-9, AA atoms CG, CZ): 3.89 | van der Waals contact distance, MASP-2 amino acid atom to compound atom (MASP-2 CCP2-SP; Table A2-9 second part, AA atoms N, NE, NH1): 3.59 | van der Waals contact distance TRP 655 atom CE3 (MASP-2 CCP2-SP; Table A2-13, MASP-2 TRP 655 CE3, compound atom in line below): 3.66 | van der Waals contact distance TRP 655 atom CZ3 (MASP-2 CCP2-SP; Table A2-13, MASP-2 TRP 655 CZ3): 3.67 | van der Waals contact distance TRP 655 atom N (MASP-2 CCP2-SP; Table A2-13, MASP-2 TRP 655 N): 3.68 | Ligand-pharmacophore element distance, pharmacophore element C2 (MASP-2 CCP2-SP; Table A4-1, element C2): 0 | Ligand-pharmacophore element distance, pharmacophore element C3 (MASP-2 CCP2-SP; Table A4-1, element C3): 0 | Ligand-pharmacophore element distance, pharmacophore element C4 (MASP-2 CCP2-SP; Table A4-1, element C4): 0 | Ligand-pharmacophore element distance, pharmacophore element C5 (MASP-2 CCP2-SP; Table A4-1, element C5): 0.34 | Ligand-pharmacophore element distance, pharmacophore element C6 (MASP-2 CCP2-SP; Table A4-1, element C6): 0 | Ligand-pharmacophore element distance, pharmacophore element C7 (MASP-2 CCP2-SP; Table A4-1, element C7): 0 | Ligand-pharmacophore element distance, pharmacophore element CA1 (MASP-2 CCP2-SP; Table A4-1, element CA1): 1.04 | Ligand-pharmacophore element distance, pharmacophore element CA2 (MASP-2 CCP2-SP; Table A4-1, element CA2): 0.7 | Ligand-pharmacophore element distance, pharmacophore element CA3 (MASP-2 CCP2-SP; Table A4-1, element CA3): 0 | Ligand-pharmacophore element distance, pharmacophore element CA4 (MASP-2 CCP2-SP; Table A4-1, element CA4): 0 | Ligand-pharmacophore element distance, pharmacophore element CA5 (MASP-2 CCP2-SP; Table A4-1, element CA5): 0 | Ligand-pharmacophore element distance, pharmacophore element CA6 (MASP-2 CCP2-SP; Table A4-1, element CA6): 0 | d(CA1,C5) (MASP-2 CCP2-SP; [1]): 3.47 | d(CA1,O1) (MASP-2 CCP2-SP; [1]): 5.33 | d(CA1,O2) (MASP-2 CCP2-SP; [1]): 4.84 | d(CA1,O4) (MASP-2 CCP2-SP; [1]): 1.75 | d(H4,O1) (MASP-2 CCP2-SP; [1]): 3.14 | d(H4,O2) (MASP-2 CCP2-SP; [1]): 3.74 | d(O1,O2) (MASP-2 CCP2-SP; [1]): 3.24 | d(N2,CA2) (MASP-2 CCP2-SP; [2]): 6.09 | d(O2,H3) (MASP-2 CCP2-SP; [2]): 2.99 | d(O2,N2) (MASP-2 CCP2-SP; [2]): 2.77 | a(C5, CA1, O1) (MASP-2 CCP2-SP; Table A6-1 pharmacophore angle): 150.49 | a(CA1, O1, O2) (MASP-2 CCP2-SP; Table A6-1 pharmacophore angle): 100.10 | a(O1, CA1, O4) (MASP-2 CCP2-SP; Table A6-1 pharmacophore angle): 68.25 | a(O1, O2, H4) (MASP-2 CCP2-SP; Table A6-1 pharmacophore angle): 124.74 | a(O1, O2, H3) (MASP-2 CCP2-SP; Table A6-2 pharmacophore angle): 136.63 | a(O1, O2, N2) (MASP-2 CCP2-SP; Table A6-2 pharmacophore angle): 143.82 | a(O2, N2, CA2) (MASP-2 CCP2-SP; Table A6-2 pharmacophore angle): 155.99 | Pharmacophore torsion angle a(C5, CA1, O1, H4) (MASP-2 CCP2-SP; [3]): 2.51 | Pharmacophore torsion angle a(H4, O1, O2, H3) (MASP-2 CCP2-SP; [3]): 110.57 | Pharmacophore torsion angle a(H4, O1, O2, N2) (MASP-2 CCP2-SP; [3]): −172.73 | Pharmacophore torsion angle a(O1, H4, O2, CA1) (MASP-2 CCP2-SP; [3]): −93.67 | Pharmacophore torsion angle a(O1, O2, N2, CA2) (MASP-2 CCP2-SP; Table A7-2, between pharmacophore elements of the bound compound): 133.84
